From ChEMBL document CHEMBL1201862, “PubChem BioAssay data set” (2004)
Several values for one entry are separate records, joined by “and”; a condition that tells them apart may be missing. Identical values can stand only once.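 Values below derive from 48-hour exposures of cells grown in 96-well plates, with endpoints linearly interpolated between the two concentrations bracketing the appropriate inhibition level. GI50 marks 50% less growth.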 Activity calls are given as the source filed them. No stated cut-off is given here; in the data, active = GI50 up to about 1.1 µM and inactive = higher.

Key:
Assay in all cases: NCI tumour cell line growth inhibition, 48 h
BT-549 = test system: BT-549
CCRF-CEM = test system: CCRF-CEM
HL-60 = test system: HL-60
HOP-62 = test system: HOP-62
LOX IMVI = test system: LOX IMVI
MCF7 = test system: MCF7
MDA-N = test system: MDA-N
MOLT-4 = test system: MOLT-4
NCI-H460 = test system: NCI-H460
NCI-H522 = test system: NCI-H522
OVCAR-3 = test system: OVCAR-3
RPMI-8226 = test system: RPMI-8226
SNB-19 = test system: SNB-19
SR = test system: SR
TK-10 = test system: TK-10
UO-31 = test system: UO-31
Hs-578T = test system: Hs-578T
M14 = test system: M14
SF-539 = test system: SF-539
T47D = test system: T47D

Row | SMILES | GI50 (BT-549) | GI50 (CCRF-CEM) | GI50 (HL-60) | GI50 (HOP-62) | GI50 (LOX IMVI) | GI50 (MCF7) | GI50 (MDA-N) | GI50 (MOLT-4) | GI50 (NCI-H460) | GI50 (NCI-H522) | GI50 (OVCAR-3) | GI50 (RPMI-8226) | GI50 (SNB-19) | GI50 (SR) | GI50 (TK-10) | GI50 (UO-31) | GI50 (Hs-578T) | GI50 (M14) | GI50 (SF-539) | GI50 (T47D)
1 | [N-]=[N+]=CC(=O)OCCCCl | > 100 µM (inactive) | > 100 µM (inactive) | > 100 µM (inactive) | > 100 µM (inactive) | > 100 µM (inactive) | > 100 µM (inactive) | > 100 µM (inactive) | > 100 µM (inactive) | 4.37 µM (inactive) | > 100 µM (inactive) | > 100 µM (inactive) | > 100 µM (inactive) | > 100 µM (inactive) | 4.25 µM (inactive) | > 100 µM (inactive) | > 100 µM (inactive) | – | – | – | –
2 | Cn1c(S)nc2c(Cl)cc(Cl)cc2c1=O | > 100 µM (inactive) | 24.8 µM (inactive) | 18.2 µM (inactive) | > 100 µM (inactive) | > 100 µM (inactive) | 71.4 µM (inactive) | > 100 µM (inactive) | 18.7 µM (inactive) | > 100 µM (inactive) | 44.1 µM (inactive) | > 100 µM (inactive) | – | > 100 µM (inactive) | – | > 100 µM (inactive) | 64 µM (inactive) | > 100 µM (inactive) | > 100 µM (inactive) | 42.8 µM (inactive) | –
3 | O=c1c([Se]c2coc3ccccc3c2=O)coc2ccccc12 | – | 18.1 µM (inactive) | 23 µM (inactive) | 4.89 µM (inactive) | 16 µM (inactive) | – | – | 9.18 µM (inactive) | 3.65 µM (inactive) | 18.4 µM (inactive) | 18 µM (inactive) | 22.8 µM (inactive) | 14 µM (inactive) | 4.72 µM (inactive) | 17.7 µM (inactive) | 13.5 µM (inactive) | – | 14.9 µM (inactive) | 11.9 µM (inactive) | –
4 | O=C1/C(=C/c2ccco2)NC(=S)N1CN1CCOCC1 | – | > 100 µM (inactive) | – | > 100 µM (inactive) | > 100 µM (inactive) | > 100 µM (inactive) | > 100 µM (inactive) | > 100 µM (inactive) | – | – | > 100 µM (inactive) | > 100 µM (inactive) | > 100 µM (inactive) | > 100 µM (inactive) | > 100 µM (inactive) | > 100 µM (inactive) | > 100 µM (inactive) | > 100 µM (inactive) | – | –
5 | C=C1C(=O)OC2CC1C(OC(C)=O)C/C(C)=C/CC/C(C)=C\CCC2(C)O (centres undefined) | – | – | 1.23 µM (inactive) and 655 nM (active) | 15.3 µM (inactive) and 13.6 µM (inactive) | 2.46 µM (inactive) and 2.14 µM (inactive) | 3.8 µM (inactive) and 3.74 µM (inactive) | 2.92 µM (inactive) and 4.09 µM (inactive) | 2.22 µM (inactive) and 1.88 µM (inactive) | 2.11 µM (inactive) and 3.41 µM (inactive) | 1.44 µM (inactive) and 1.36 µM (inactive) | 5.93 µM (inactive) and 4.35 µM (inactive) | 1.9 µM (inactive) and 1.82 µM (inactive) | 17.3 µM (inactive) and 15.1 µM (inactive) | 1.29 µM (inactive) | 4.37 µM (inactive) and 3.66 µM (inactive) | 3.24 µM (inactive) and 6.12 µM (inactive) | 5.87 µM (inactive) and 3.79 µM (inactive) | 5.83 µM (inactive) and 6.1 µM (inactive) | 3.48 µM (inactive) and 5.43 µM (inactive) | 3.4 µM (inactive) and 4.56 µM (inactive)
6 | CNC(=S)N/N=C1\C(=O)N(CN2CCOCC2)c2ccc([N+](=O)[O-])cc21 | – | 23.5 µM (inactive) | 23.6 µM (inactive) | 14.1 µM (inactive) | 17.4 µM (inactive) | 20.4 µM (inactive) | 67.9 µM (inactive) | 43.6 µM (inactive) | 23.4 µM (inactive) | – | 17.5 µM (inactive) | 21.2 µM (inactive) | 21.9 µM (inactive) | 53.3 µM (inactive) | 13.3 µM (inactive) | 3.05 µM (inactive) | 25 µM (inactive) | 31.6 µM (inactive) | 17.7 µM (inactive) | 18.9 µM (inactive)
7 | CCN(CC)CCO/N=C1\CC[C@H]2[C@@H]3CC=C4C[C@@H](O)CC[C@]4(C)[C@H]3CC[C@]12C | 16.8 µM (inactive) | – | 9.77 µM (inactive) | 17.6 µM (inactive) | 16.5 µM (inactive) | 16.6 µM (inactive) | 23 µM (inactive) | 15.7 µM (inactive) | 14.9 µM (inactive) | 17.3 µM (inactive) | 19.5 µM (inactive) | 16.9 µM (inactive) | 31.4 µM (inactive) | 5.31 µM (inactive) | 27.6 µM (inactive) | 15.8 µM (inactive) | 34 µM (inactive) | – | 13.6 µM (inactive) | –
8 | CCC(=O)OC1CCn2c1nc1c2C(=O)C(C)=C(NC(C)=O)C1=O (centres undefined) | – | 0.736 µM (active) | 0.796 µM (active) | 11.7 µM (inactive) | 1.37 µM (inactive) | – | – | 1.41 µM (inactive) | 3.22 µM (inactive) | 1.54 µM (inactive) | 0.236 µM (active) | 1.93 µM (inactive) | 2.9 µM (inactive) | 1.91 µM (inactive) | 5.12 µM (inactive) | 2.22 µM (inactive) | – | 1.89 µM (inactive) | 1.75 µM (inactive) | –
9 | CC(C)N(C(=O)C12C3C4C5C3C1(C#N)C5C42)C(C)C (centres undefined) | – | > 100 µM (inactive) | > 100 µM (inactive) | > 100 µM (inactive) | 35.3 µM (inactive) | – | – | > 100 µM (inactive) | > 100 µM (inactive) | > 100 µM (inactive) | > 100 µM (inactive) | > 100 µM (inactive) | > 100 µM (inactive) | > 100 µM (inactive) | > 100 µM (inactive) | > 100 µM (inactive) | – | > 100 µM (inactive) | > 100 µM (inactive) | –
10 | O=S(=O)(F)Cc1ccccc1 [PHENYLMETHYLSULFONYLFLUORIDE] | > 100 µM (inactive) | > 100 µM (inactive) | – | > 100 µM (inactive) | > 100 µM (inactive) | > 100 µM (inactive) | > 100 µM (inactive) | > 100 µM (inactive) | > 100 µM (inactive) | 39.1 µM (inactive) | > 100 µM (inactive) | > 100 µM (inactive) | > 100 µM (inactive) | > 100 µM (inactive) | > 100 µM (inactive) | > 100 µM (inactive) | – | > 100 µM (inactive) | > 100 µM (inactive) | –
11 | O=C1C(=O)N(c2ccc(Cl)cc2Cl)C(=O)C(=O)C1c1nc2ccccc2s1 | – | 25 µM (inactive) | 23.7 µM (inactive) | > 100 µM (inactive) | > 100 µM (inactive) | – | – | 23.3 µM (inactive) | > 100 µM (inactive) | 24.5 µM (inactive) | > 100 µM (inactive) | 48 µM (inactive) | > 100 µM (inactive) | 28.2 µM (inactive) | > 100 µM (inactive) | > 77.4 µM (inactive) | – | > 100 µM (inactive) | > 100 µM (inactive) | –
12 | COc1c2nc(CCl)n(C)c(=O)c2c(OC)c2c(=O)n(C)c(CCl)nc12 | 0.544 µM (active) | 0.354 µM (active) | 0.653 µM (active) | 1.87 µM (inactive) | 0.446 µM (active) | 0.48 µM (active) | 1.49 µM (inactive) | 0.294 µM (active) | 1.97 µM (inactive) | 1.34 µM (inactive) | 1.84 µM (inactive) | 0.303 µM (active) | 2.11 µM (inactive) | – | 0.447 µM (active) | 1.24 µM (inactive) | 4.27 µM (inactive) | – | 3.44 µM (inactive) | –
13 | CCOC(=O)CCC(NC(=O)c1ccc(/N=C/c2nc3ccccc3nc2-c2ccccc2)cc1)C(=O)OCC (centres undefined) | – | > 100 µM (inactive) | > 100 µM (inactive) | > 100 µM (inactive) | > 100 µM (inactive) | – | – | > 100 µM (inactive) | > 100 µM (inactive) | > 100 µM (inactive) | > 100 µM (inactive) | > 100 µM (inactive) | > 100 µM (inactive) | > 100 µM (inactive) | > 100 µM (inactive) | > 100 µM (inactive) | – | 82 µM (inactive) | > 100 µM (inactive) | –
14 | CSC1NC(c2ccc(Cl)cc2)=C(C#N)C(=O)N1C1OCC(OC(C)=O)C(OC(C)=O)C1OC(C)=O (centres undefined) | > 100 µM (inactive) | – | – | > 100 µM (inactive) | > 100 µM (inactive) | > 100 µM (inactive) | > 100 µM (inactive) | 8.24 µM (inactive) | > 100 µM (inactive) | > 100 µM (inactive) | > 100 µM (inactive) | > 100 µM (inactive) | > 100 µM (inactive) | 24.5 µM (inactive) | > 100 µM (inactive) | 53.3 µM (inactive) | > 100 µM (inactive) | > 100 µM (inactive) | 67.3 µM (inactive) | –
15 | CC1C(c2ccc(Cl)cc2)c2cc3c(cc2OC1N1CCOCC1)OCO3 (centres undefined) | – | 92.9 µM (inactive) | – | 79.4 µM (inactive) | > 100 µM (inactive) | > 100 µM (inactive) | > 100 µM (inactive) | > 100 µM (inactive) | > 100 µM (inactive) | 46.3 µM (inactive) | 85.3 µM (inactive) | 34.1 µM (inactive) | 80.9 µM (inactive) | 0.931 µM (active) | > 100 µM (inactive) | 54.3 µM (inactive) | 23.9 µM (inactive) | 85.3 µM (inactive) | 45 µM (inactive) | 32.4 µM (inactive)
16 | Cc1c(C)c2ccc3oc4ccccc4c3c2oc1=O | – | > 100 µM (inactive) | > 100 µM (inactive) | > 100 µM (inactive) | > 100 µM (inactive) | – | – | > 100 µM (inactive) | > 100 µM (inactive) | > 100 µM (inactive) | > 100 µM (inactive) | > 100 µM (inactive) | > 100 µM (inactive) | > 100 µM (inactive) | > 100 µM (inactive) | > 100 µM (inactive) | – | > 100 µM (inactive) | > 100 µM (inactive) | –
